Results on three compounds are retold here after article PMC9626527, “SHR2285, the first selectively oral FXIa inhibitor in China: Safety, tolerability, pharmacokinetics and pharmacodynamics combined with aspirin, clopidogrel or ticagrelor” (Frontiers in Pharmacology, 2022).

This data set is described as follows: clinical. The protocol:
For group A, the dosing regimen was aspirin + clopidogrel + placebo or SHR2285 200 mg. Specifically, aspirin: 100 mg was taken orally every morning from day 1 to day 6; clopidogrel: 300 mg in the morning of the first day, 75 mg in the morning of the second day to the sixth day; placebo or SHR2285 (1:3): 200 mg orally every morning and evening until the morning of the sixth day.
For group B, the dosing regimen was aspirin + clopidogrel + placebo or SHR2285 300 mg. The use of aspirin and clopidogrel was the same as that of group A; Placebo or SHR2285: added the amount to 300 mg based on group A.
For group C, the administration regimen was aspirin + ticagrelor + placebo or SHR2285 300 mg. The use of aspirin, placebo or SHR2285 was the same as that in group B. Clopidogrel in group B was adjusted to ticagrelor: 180 mg orally in the morning of the first day, 90 mg in the morning and evening from the second day to the morning of the sixth day.
PK blood collection points: the blood of each group was collected in the morning of day 1 before administration (within 1 h before administration), 4 h and 12 h after administration (before administration in the evening); in the morning of day 3, day 4, and day 5 before administration (within 1 h before administration), within 1 h before administration on the morning of the sixth day, and 0.5 h, 1 h, 1.5 h, 2 h, 2.5 h, 3 h, 4 h, 5 h, 6 h, 8 h, 10 h, 12 h, 15 h, 24 h, 36 h, and 48 h after administration. About 7 ml of venous blood was collected, and the plasma was collected for concentration determination of aspirin and its active metabolites (salicylic acid) and clopyridine (group A, group B), ticagrelor and its active metabolite AR-C124910XX (group C), SHR2285 and its active metabolite SHR164471.
Based on the actual sampling time, the PK parameters of each component were calculated as a non-compartmental model by WinNonlin (Certara United States Inc, version 8.1). The pharmacokinetic parameters after multiple administrations were investigated: Cmax, AUCtau, AUC0-last, AUC0-inf, Tmax, t1/2, CLss/F, Vss/F, Ctrough and Caverage. The main pharmacokinetic parameters such as AUC0-last, AUC0-inf and Cmax were tabulated and summarized by descriptive statistics.
After logarithmic conversion, the AUCss and Cmax of each component in the SHR2285 group (aspirin + clopidogrel/ticagrelor + SHR2285) and placebo group (aspirin + clopidogrel/ticagrelor + placebo) were statistically analyzed by ANOVA model. The medication group was used as the independent variable. The geometric mean ratio of the corresponding PK parameter (SHR2285/placebo group) and the estimated value of its 90% confidence interval was obtained by taking the exponential conversion from the mean difference estimated by the model (SHR2285 group-placebo group) and its 90% confidence interval. SHR2285 and its metabolite SHR164471, aspirin/salicylic acid, clopidogrel, ticagrelor and its metabolite AR-C124910XX were determined by Frontage Laboratories Co., Ltd. (Shanghai, China) using high-performance liquid chromatography-tandem mass spectrometry (HPLC-MS, Sciex API 4000). The chromatographic column is WATERS CORTECS®T3 (50 mm × 4.6 mm, id 2.7 μm), column temperature is set at 40°C. Mobile phase A is ultrapure water (containing 0.1% formic acid), and mobile phase B is acetonitrile/water (90:10, containing 0.1% formic acid). The elution gradient is: 0–0.4 min, A-B (50:50), 0.4–0.8 min, A-B (5:95), 0.8–2 min, A-B (5:95), 2–2.4 (50:50), 2.4–3.5 min, A-B (50:50). The total time was 3.5 min and the flow rate was 1.0 ml/min. The ion source was ESI source at positive ion mode. The heating capillary temperature was 400°C; CAD was nine; curtain gas was 30; GS1 (N2) was 50; GS2 (N2) was 50; The method used was multiple reaction monitoring (MRM), and the ion reactions used for quantitative analysis were m/z 545.1→408.0 (SHR2285) and m/z 721.2→408.1 (SHR164471), respectively.

Setting [1] is: Placebo (C) n=8: aspirin + ticagrelor + placebo, day 6.
The mark [2] stands for this setting: SHR2285 (C) n=12: aspirin + ticagrelor + SHR2285 300 mg bid, day 6.

SMILES strings stand for the structures.

For orientation: Tmax means the time from dosing to the highest level.

Consider `COC(=O)[C@H](c1ccccc1Cl)N1CCc2sccc2C1` [Clopidogrel, clopidogrel], for which, where the note is “human, in vivo”, the time of peak concentration (Tmax) result is “one to 1.5”.
Consider `CCCSc1nc(N[C@@H]2C[C@H]2c2ccc(F)c(F)c2)c2nnn([C@@H]3C[C@H](O)[C@@H](O)[C@H]3O)c2n1` [AR-C124910XX], for which the AUCtau under setting [1] is listed as 2490(38.3) h*ng/mL and the AUCtau under setting [2] was 2280(26.4) h*ng/mL. Further, the Cmax under setting [1] was 389(35.4) ng/ml and the Cmax under setting [2] is given as 367(28.1) ng/ml. For the same compound, the time to peak (Tmax) reads like this: (Placebo (C) n=8: aspirin + ticagrelor + placebo, day 6, median (range)) 1.5(1.0-2.5) h; (SHR2285 (C) n=12: aspirin + ticagrelor + SHR2285 300 mg bid, day 6, median (range)) 1.75(1.5-2.5) h; (range across SHR2285 and placebo groups, day 6) 1.5 to 1.75 h. For the same compound, the “steady state in plasma” value (group C, six days after administration of ticagrelor) is recorded as “reached a steady state”.
On to `CCCSc1nc(N[C@@H]2C[C@H]2c2ccc(F)c(F)c2)c2nnn([C@@H]3C[C@H](OCCO)[C@@H](O)[C@H]3O)c2n1` [Ticagrelor, ticagrelor], for which, where the note is “human, in vivo”, the “GLSMR of AUCtau (SHR2285 group/placebo group)” value came out at 0.929 and the “GLSMR of Cmax (SHR2285 group/placebo group)” value worked out at 1.06. Moreover, for the setting “human, in vivo, Tmax”, the Tmax lay in the range of 1.5 to 1.75 h. For the setting “in vivo”, the “steady state in plasma” value was “reached a steady state”.
